Patent US20260028365A1 (BIOGEN MA INC., priority 2022, published 2026)

Tests used:
JH2 domain of human Tyk2 = JH2 domain of human Tyk2 (Homo sapiens (Human), UniProt P29597); test: JH2 Biochemical Assay (TR-FRET probe displacement); format: binding; settings: JH2 domain of human Tyk2, TR-FRET probe displacement
Tyk2 = Tyk2 (Homo sapiens (Human), UniProt P29597); test: pSTAT4 Cell Assay (MSD, NK92 cells); format: cell-based; settings: MSD
Chain of Tyk2 (P29597 whole entry): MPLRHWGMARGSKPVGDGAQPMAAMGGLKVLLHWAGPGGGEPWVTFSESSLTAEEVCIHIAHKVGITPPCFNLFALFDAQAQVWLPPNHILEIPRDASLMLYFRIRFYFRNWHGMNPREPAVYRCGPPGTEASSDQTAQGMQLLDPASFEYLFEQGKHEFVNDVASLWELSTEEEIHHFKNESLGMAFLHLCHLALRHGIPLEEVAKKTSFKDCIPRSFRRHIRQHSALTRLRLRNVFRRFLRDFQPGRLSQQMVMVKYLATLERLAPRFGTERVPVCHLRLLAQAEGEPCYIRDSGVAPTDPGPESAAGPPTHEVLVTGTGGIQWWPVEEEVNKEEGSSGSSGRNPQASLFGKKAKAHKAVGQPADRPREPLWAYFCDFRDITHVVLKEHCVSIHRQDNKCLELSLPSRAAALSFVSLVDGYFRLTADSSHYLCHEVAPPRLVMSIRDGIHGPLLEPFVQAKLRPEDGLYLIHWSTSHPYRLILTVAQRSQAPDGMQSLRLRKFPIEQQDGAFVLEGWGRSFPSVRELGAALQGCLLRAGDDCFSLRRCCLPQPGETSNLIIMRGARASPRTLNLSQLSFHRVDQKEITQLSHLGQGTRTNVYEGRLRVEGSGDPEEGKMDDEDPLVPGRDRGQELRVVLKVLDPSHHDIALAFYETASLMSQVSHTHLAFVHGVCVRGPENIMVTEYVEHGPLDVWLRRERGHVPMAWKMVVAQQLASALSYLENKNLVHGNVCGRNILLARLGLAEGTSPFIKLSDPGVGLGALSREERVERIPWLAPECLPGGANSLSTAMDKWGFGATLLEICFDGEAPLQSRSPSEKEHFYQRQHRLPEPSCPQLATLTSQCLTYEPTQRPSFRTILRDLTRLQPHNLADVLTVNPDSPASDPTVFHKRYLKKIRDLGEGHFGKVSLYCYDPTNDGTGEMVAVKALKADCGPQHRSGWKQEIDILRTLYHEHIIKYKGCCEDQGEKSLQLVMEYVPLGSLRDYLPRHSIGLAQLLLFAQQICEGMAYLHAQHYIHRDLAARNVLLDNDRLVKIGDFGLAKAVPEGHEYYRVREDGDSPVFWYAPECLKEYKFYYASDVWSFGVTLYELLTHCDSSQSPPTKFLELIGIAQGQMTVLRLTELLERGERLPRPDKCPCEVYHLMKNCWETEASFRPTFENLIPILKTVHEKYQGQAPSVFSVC

Chain of JH2 domain of human Tyk2 (P29597 575-876): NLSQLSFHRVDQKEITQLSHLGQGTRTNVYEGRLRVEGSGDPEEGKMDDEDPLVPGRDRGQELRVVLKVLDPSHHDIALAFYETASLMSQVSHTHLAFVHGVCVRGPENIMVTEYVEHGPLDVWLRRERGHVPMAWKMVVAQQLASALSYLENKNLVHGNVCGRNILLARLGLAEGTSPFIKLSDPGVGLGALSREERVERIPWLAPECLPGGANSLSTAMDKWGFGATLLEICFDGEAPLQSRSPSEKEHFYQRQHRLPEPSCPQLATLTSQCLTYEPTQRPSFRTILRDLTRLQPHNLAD

In the case of `CC(=O)Nc1cc(Nc2cc(C)nc(C(C)(F)F)n2)c(-c2ccc(C)cn2)cn1` [Example 593, N-(4′-((2-(1,1-difluoroethyl)-6-methylpyrimidin-4-yl)amino)-5-methyl-[2,3′-bipyridin]-6′-yl)acetamide], the IC50 (JH2 domain of human Tyk2) is reported as at most 10 nM and the IC50 (Tyk2) is reported as at most 10 nM.
For `CC(=O)Nc1cc(Nc2cc(C)nc(C(C)(F)F)n2)c(-c2ncc(C)cn2)cn1` [Example 595, N-(4-((2-(1,1-difluoroethyl)-6-methylpyrimidin-4-yl)amino)-5-(5-methylpyrimidin-2-yl)pyridin-2-yl)acetamide], the IC50 (JH2 domain of human Tyk2) was at most 10 nM and the IC50 (Tyk2) was 10 to 100 nM.
In the case of `CC(=O)Nc1cc(Nc2cc(C)nc(C(C)(F)F)n2)c(-n2ccc(C)n2)cn1` [Example 597, N-(4-((2-(1,1-difluoroethyl)-6-methylpyrimidin-4-yl)amino)-5-(3-methyl-1H-pyrazol-1-yl)pyridin-2-yl)acetamide], the IC50 (JH2 domain of human Tyk2) is reported as at most 10 nM and the IC50 (Tyk2) is reported as 10 to 100 nM.
`COc1ccc(-c2cnc(NC(C)=O)cc2Nc2cc(C)nc(C(C)(F)F)n2)nc1` [Example 599, N-(4′-((2-(1,1-difluoroethyl)-6-methylpyrimidin-4-yl)amino)-5-methoxy-[2,3′-bipyridin]-6′-yl)acetamide] was tested, and the IC50 (JH2 domain of human Tyk2) was at most 10 nM and the IC50 (Tyk2) was at most 10 nM.
For `CC(=O)Nc1cc(Nc2cc(C)nc(C(C)(F)F)n2)c(-c2cnc(C)o2)cn1` [Example 600, N-(4-((2-(1,1-difluoroethyl)-6-methylpyrimidin-4-yl)amino)-5-(2-methyloxazol-5-yl)pyridin-2-yl)acetamide], the IC50 (JH2 domain of human Tyk2) was 10 to 100 nM and the IC50 (Tyk2) was 100 to 1000 nM.
`CC(=O)Nc1cc(Nc2cc(C)nc(C(C)(F)F)n2)c(-c2cn(C)c(C#N)n2)cn1` [Example 601, N-(5-(2-cyanO1-methyl-1H-imidazol-4-yl)-4-((2-(1,1-difluoroethyl)-6-methylpyrimidin-4-yl)amino)pyridin-2-yl)acetamide] showed an IC50 (JH2 domain of human Tyk2) of at most 10 nM and an IC50 (Tyk2) of at most 10 nM.
For `CC(=O)Nc1cc(Nc2cc(C)nc(C(C)(F)F)n2)c(-c2ccn(C(C)C)n2)cn1` [Example 603, N-(4-((2-(1,1-difluoroethyl)-6-methylpyrimidin-4-yl)amino)-5-(1-isopropyl-1H-pyrazol-3-yl)pyridin-2-yl)acetamide], the IC50 (JH2 domain of human Tyk2) was at most 10 nM and the IC50 (Tyk2) was at most 10 nM.
With `CC(=O)Nc1cc(Nc2cc(C)nc(C(C)(F)F)n2)c(-c2nccs2)cn1` [Example 605, N-(4-((2-(1,1-difluoroethyl)-6-methylpyrimidin-4-yl)amino)-5-(thiazol-2-yl)pyridin-2-yl)acetamide] the IC50 (JH2 domain of human Tyk2) was at most 10 nM and the IC50 (Tyk2) was 10 to 100 nM.
Work on `CC(=O)Nc1cc(Nc2cc(C)nc(C(C)(F)F)n2)c(-c2csc(C)n2)cn1` [Example 606, N-(4-((2-(1,1-difluoroethyl)-6-methylpyrimidin-4-yl)amino)-5-(2-methylthiazol-4-yl)pyridin-2-yl)acetamide] yielded an IC50 (JH2 domain of human Tyk2) of at most 10 nM and an IC50 (Tyk2) of at most 10 nM.
For `CC(=O)Nc1cc(Nc2cc(C)nc(C(C)(F)F)n2)c(-c2cn(C)nn2)cn1` [Example 607, N-(4-((2-(1,1-difluoroethyl)-6-methylpyrimidin-4-yl)amino)-5-(1-methyl-1H-1,2,3-triazol-4-yl)pyridin-2-yl)acetamide], the IC50 (JH2 domain of human Tyk2) was at most 10 nM and the IC50 (Tyk2) was at most 10 nM.
`CC(=O)Nc1cc(Nc2cc(C)nc(C(C)(F)F)n2)c(-c2cnn(C(C)C)n2)cn1` [Example 610, N-(4-((2-(1,1-difluoroethyl)-6-methylpyrimidin-4-yl)amino)-5-(2-isopropyl-2H-1,2,3-triazol-4-yl)pyridin-2-yl)acetamide] showed an IC50 (JH2 domain of human Tyk2) of at most 10 nM and an IC50 (Tyk2) of at most 10 nM.
In the case of `CC(=O)Nc1cc(Nc2cc(C)nc(C(C)(F)F)n2)c(-c2nnc(C(C)(C)C)s2)cn1` [Example 611, N-(5-(5-(tert-butyl)-1,3,4-thiadiazol-2-yl)-4-((2-(1,1-difluoroethyl)-6-methylpyrimidin-4-yl)amino)pyridin-2-yl)acetamide], the IC50 (JH2 domain of human Tyk2) is reported as at most 10 nM and the IC50 (Tyk2) is reported as at most 10 nM.
With `CC(=O)Nc1cc(Nc2cc(C)nc(C(C)(F)F)n2)c(-c2csc(C(C)C)n2)cn1` [Example 612, N-(4-((2-(1,1-difluoroethyl)-6-methylpyrimidin-4-yl)amino)-5-(2-isopropylthiazol-4-yl)pyridin-2-yl)acetamide] the IC50 (JH2 domain of human Tyk2) was at most 10 nM and the IC50 (Tyk2) was at most 10 nM.
Molecule `CCn1ccc(-c2cnc(NC(C)=O)cc2Nc2cc(C)nc(C(C)(F)F)n2)n1` [Example 613, N-(4-((2-(1,1-difluoroethyl)-6-methylpyrimidin-4-yl)amino)-5-(1-ethyl-1H-pyrazol-3-yl)pyridin-2-yl)acetamide] has an IC50 (JH2 domain of human Tyk2) of at most 10 nM and an IC50 (Tyk2) of at most 10 nM.
In the case of `CC(=O)Nc1cc(Nc2cc(C)nc(C(C)(F)F)n2)c(-c2ccn(CC3CC3)n2)cn1` [Example 614, N-(5-(1-(cyclopropylmethyl)-1H-pyrazol-3-yl)-4-((2-(1,1-difluoroethyl)-6-methylpyrimidin-4-yl)amino)pyridin-2-yl)acetamide], the IC50 (JH2 domain of human Tyk2) is reported as at most 10 nM and the IC50 (Tyk2) is reported as at most 10 nM.
With `CCCn1ccc(-c2cnc(NC(C)=O)cc2Nc2cc(C)nc(C(C)(F)F)n2)n1` [Example 615, N-(4-((2-(1,1-difluoroethyl)-6-methylpyrimidin-4-yl)amino)-5-(1-propyl-1H-pyrazol-3-yl)pyridin-2-yl)acetamide] the IC50 (JH2 domain of human Tyk2) was at most 10 nM and the IC50 (Tyk2) was at most 10 nM.
Work on `COc1nc(-c2cnc(NC(C)=O)cc2Nc2cc(C)nc(C(C)(F)F)n2)cs1` [Example 617, N-(4-((2-(1,1-difluoroethyl)-6-methylpyrimidin-4-yl)amino)-5-(2-methoxythiazol-4-yl)pyridin-2-yl)acetamide] yielded an IC50 (JH2 domain of human Tyk2) of at most 10 nM and an IC50 (Tyk2) of at most 10 nM.
Molecule `CC(=O)Nc1cc(Nc2cc(C)nc(C(C)(F)F)n2)c(-c2cc(C)n(C)n2)cn1` [Example 619, N-(4-((2-(1,1-difluoroethyl)-6-methylpyrimidin-4-yl)amino)-5-(1,5-dimethyl-1H-pyrazol-3-yl)pyridin-2-yl)acetamide] has an IC50 (JH2 domain of human Tyk2) of at most 10 nM and an IC50 (Tyk2) of at most 10 nM.
Work on `CC(=O)Nc1cc(Nc2cc(C)nc(C(C)(F)F)n2)c(-c2cccc(F)n2)cn1` [Example 623, N-(4′-((2-(1,1-difluoroethyl)-6-methylpyrimidin-4-yl)amino)-6-fluorO[2,3′-bipyridin]-6′-yl)acetamide] yielded an IC50 (JH2 domain of human Tyk2) of at most 10 nM and an IC50 (Tyk2) of at most 10 nM.
With `CC(=O)Nc1cc(Nc2cc(C)nc(C(C)(F)F)n2)c(-c2cc(N(C)C)ccn2)cn1` [Example 627, N-(4′-((2-(1,1-difluoroethyl)-6-methylpyrimidin-4-yl)amino)-4-(dimethylamino)-[2,3′-bipyridin]-6′-yl)acetamide] the IC50 (JH2 domain of human Tyk2) was 100 to 1000 nM and the IC50 (Tyk2) was at least 1000 nM.
`CC(=O)Nc1cc(Nc2cc(C)nc(C(C)(F)F)n2)c(-c2cccc(N3CCOCC3)n2)cn1` [Example 628, N-(4′-((2-(1,1-difluoroethyl)-6-methylpyrimidin-4-yl)amino)-6-morpholinO[2,3′-bipyridin]-6′-yl)acetamide] showed an IC50 (JH2 domain of human Tyk2) of at most 10 nM and an IC50 (Tyk2) of at most 10 nM.
For `CC(=O)Nc1cc(Nc2cc(C)nc(C(C)(F)F)n2)c(-c2cccc(C#N)n2)cn1` [Example 630, N-(6-cyanO4′-((2-(1,1-difluoroethyl)-6-methylpyrimidin-4-yl)amino)-[2,3′-bipyridin]-6′-yl)acetamide], the IC50 (JH2 domain of human Tyk2) was at most 10 nM and the IC50 (Tyk2) was at most 10 nM.
For `CC(=O)Nc1cc(Nc2cc(C)nc(C(C)(F)F)n2)c(-c2cc(C#N)ccn2)cn1` [Example 631, N-(4-cyanO4′-((2-(1,1-difluoroethyl)-6-methylpyrimidin-4-yl)amino)-[2,3′-bipyridin]-6′-yl)acetamide], the IC50 (JH2 domain of human Tyk2) was at most 10 nM and the IC50 (Tyk2) was 10 to 100 nM.
